In patent US20070149508A1, “Six membered heteroaromatic inhibitors targeting resistant kinase mutations” (TargeGen, Inc., priority 2005, published 2007) one finds IC50 data, which are given here for 13 compounds.

The IC50 is the concentration at which inhibition is half-maximal. A lower IC50 goes with inhibition by little substance.

Assay [1] has as its target T1, Abl (T315I) (Homo sapiens, UniProt P00519, T315I).
T1 construct: purchased Upstate
The assay is described as follows: Abl (T315I) Kinase Assay (KinaseGlo luminescent detection of residual ATP). The following applies: Abl (T315I) IC50 (nM), Abl (T315I) (Upstate, 17 ng/well), Abltide 100 uM, ATP 500 nM, 60 minutes at 37° C. It counts as biochemical. As to the method:
The assay was performed similarly to the Abl kinase assay. Abl (T315I) (Upstate, 17 ng/well); Abltide substrate (100 uM) and ATP (500 nM) comprised the reaction mixture. Compound was similarly diluted, and the reaction plate was incubated for 60 minutes at 37° C.

Assay [2] concerns the target Abl kinase (Homo sapiens, UniProt P00519). The experiment in a line: biochemical. The note with it: Abl IC50 (nM), Abl kinase (Invitrogen, 20 ng/well), Abltide 100 μM, ATP 500 nM, 37° C. for 60 minutes, top concentration 10 uM.

Where a name gives a salt, the structure may show the parent alone.

Take `O=C(Nc1nc2ccc(/C=C/c3cnc(Nc4ccc(S(=O)(=O)C5CCNCC5)cc4)nc3)cc2s1)c1cccc(C(F)(F)F)c1` [N-(6-((E)-2-(2-(4-(piperidin-4-ylsulfonyl)phenylamino)pyrimidin-5-(trifluoromethyl)benzamide Hydrochloride]: the figures for the concentration for half-maximal inhibition (IC50) in assay [1] and in assay [2] were 332 nM and 967 nM, respectively.
On to `O=S(=O)(c1ccc(Nc2ncc(/C=C/c3cccc4[nH]ncc34)cn2)cc1)N1CCCNCC1` [[4-([1,4]Diazepane-1-sulfonyl)-phenyl]-{5-[2-(1H-indazol-4-yl)-vinyl]-pyrimidin-2-yl}-amine], for which the IC50 was determined as 184 nM in assay [1] and 12 nM in assay [2].
In the same order, the values of `Nc1nc2ccc(/C=C/c3cnc(Nc4ccc(S(=O)(=O)N5CCNCC5)c(F)c4)nc3)cc2s1` [6-[(E)-2-(2-{[3-fluoro-4-ylsulfonyl)phenyl]amino}pyrimidin-5-yl)vinyl]-1,3-benzothiazol-2-amine] are 94 nM and 100 nM.
In the same order, the values of `O=S(=O)(NC1CCCNC1)c1ccc(Nc2ncc(/C=C/c3cccc(O)c3)cn2)cc1` (centres unmarked) [4-{5-[2-(3-Hydroxy-phenyl)-vinyl]-pyrimidine-2-ylamino}-N-piperdin-3-yl-benzenesulfonamide Hydrochloride] are 60 nM and 12 nM.
For `O=S(=O)(c1ccc(Nc2ncc(/C=C/c3cccc(-c4ncc[nH]4)c3)cn2)cc1)C1CCNCC1` [5-((E)-3-(1H-imidazol-2-yl)styryl))-N-(4-(piperidin-4-ylsulfonyl)phenyl)pyrimidin-2-amine], in that order: 2720 nM and 159 nM.
Turning to `O=S(=O)(c1ccc(Nc2ncc(/C=C/c3cccc4[nH]ccc34)cn2)cc1)C1CCNCC1` [5-((E)-2-(1H-indol-4-yl)vinyl)-N-(4-(piperidin-4-2-amine], the IC50 stood at 154 nM in assay [1] and 6.3 nM in assay [2].
For `O=S(=O)(c1ccc(Nc2ncc(/C=C/c3ccc(Cl)c4[nH]ccc34)cn2)cc1)C1CCNCC1` [5-((E)-2-(7-chloro-1H-indol-4-yl)vinyl)-N-(4-(piperidin-ylsulfonyl)phenyl)pyrimidin-2-amine Hydrochloride], the IC50 in assay [1] turned out to be 156 nM; in assay [2] it was 15 nM.
In the same order, the values of `Nc1nc2ccc(/C=C/c3cnc(Nc4ccc(S(=O)(=O)CC5CCNCC5)cc4)nc3)cc2s1` [6-(2-{2-[4-(Piperidin-4-ylmethanesulfonyl)-phenylamino]-pyrimidin-5-yl}-vinyl)-benzothiazol-2-ylamine] are 76 nM and 169 nM.
For `O=S(=O)(c1ccc(Nc2ncc(/C=C/c3cccc(-c4cn[nH]c4)c3)cn2)cc1)C1CCNCC1` [5-(3-(1H-pyrazol-4-yl)styryl)-N-(4-(piperidin-4-ylsulfonyl)phenyl)-pyrimidin-2-amine Hydrochloride], in that order: 1980 nM and 1740 nM.
In the same order, the values of `O=C1Cc2c(/C=C/c3cnc(Nc4ccc(S(=O)(=O)C5CCNCC5)cc4)nc3)cccc2N1` [4-(2-{2-[4-(Piperidine-4-sulfonyl)-phenylamino]-pyrimidin-5-yl}-vinyl)-1,3-dihydro-indol-2-one, hydrogen chloride] are 2270 nM and 127 nM.
In the case of `O=S(=O)(c1ccc(Nc2ncc(/C=C/c3n[nH]c4ccccc34)cn2)cc1)C1CCNCC1` [5-((E)-2-(1H-indazol-3-yl)vinyl)-N-(4-(piperidin-4-ylsulfonyl)phenyl)pyrimidin-2-amine Hydrochloride], the IC50 in assay [1] was 202 nM; in assay [2], 191 nM.
For `O=S(=O)(c1ccc(Nc2ncc(/C=C/c3ccc(-c4cn[nH]c4)cc3)cn2)cc1)N1CCNCC1` [N-[4-(piperazin-1-ylsulfonyl)phenyl]-5-{(E)-2-[4-(1H-pyrazol-4-yl)phenyl]vinyl}pyrimidin-2-amine], in that order: 1230 nM and 3800 nM.
Consider `O=S(=O)(c1ccc(Nc2ncc(/C=C/c3cc(O)ccc3Cl)cn2)cc1)C1CCNCC1` [4-Chloro-3-(2-{2-[4-(piperidine-4-sulfonyl)-phenylamino]-pyrimidin-5-yl}-vinyl)-phenol], for which the values for the IC50 in assay [1] and in assay [2] were 96 nM and 3.8 nM, respectively.
